The source made the active and inactive calls. No cut-off for these calls is given here.
What was measured:
[1] = system: Aspergillus fumigatus; assay: Antimicrobial activity against Aspergillus fumigatus AF293 infected in hartley guinea pig assessed as log reduction in […] fungal burden at 10 mg/kg, po BID after 4 to 7 days postinfection; format: functional
[2] = system: Aspergillus fumigatus; assay: Antimicrobial activity against Aspergillus fumigatus AF293 infected in hartley guinea pig assessed as survival rate at 10 mg/kg, po BID for 8 days postinfection; format: functional
[3] = system: Aspergillus fumigatus; assay: Antimicrobial activity against Aspergillus fumigatus AF293 infected in hartley guinea pig assessed as decreased fungal burden in lung at 10 mg/kg, po BID for 8 days postinfection; format: functional, organism-based; set-up: dose 10 mg/kg
[4] = system: Aspergillus fumigatus; assay: Antimicrobial activity against Aspergillus fumigatus AF293 infected in hartley guinea pig assessed as time to death at 10 mg/kg, po BID for 8 days postinfection; format: functional; conditions: AF293, in Cavia porcellus, 192 h
[5] = system: Aspergillus fumigatus; assay: Antimicrobial activity against Aspergillus fumigatus AF293 infected in hartley guinea pig assessed as decreased fungal burden in lung at 10 mg/kg, po BID after 4 to 6 days postinfection; format: functional, organism-based; set-up: dose 10 mg/kg

**Q.** With `C[C@@H](c1ncncc1F)[C@](O)(Cn1cncn1)c1ccc(F)cc1F` [VORICONAZOLE] as the compound, how does the FC [1] read?
**A.** 2.98

**Q.** What about the Survival [2] of the same compound?
**A.** 9.13 days

**Q.** And the Activity [3]?
**A.** Active

**Q.** What about the survival at 10 mg/kg [4] of the same compound?
**A.** 62.5%

**Q.** What about the Activity [5] of the same compound?
**A.** Active
